Assay results from US20150005381A1, “METHOD FOR MODULATING STEM CELL GROWTH” (SUCAMPO AG, priority 2008, published 2015).

Legend:
[1] = system: nigro-striatal dopaminergic neurons of MPTP-treated mice; experiment: Effect on impaired dopaminergic neurons in MPTP-treated mice (TH immunostaining); format: in vivo, male C57BL/6 mice; settings: Day 8; for Area of TH-positive immunostained fibers in striatum, mean ± S.E. / TH-positive immunostained cells in substantia nigra, mean ± S.E.: MPTP-treated mice
Procedure: The effect of Compound A (11-deoxy-13,14-dihydro-15-keto-16,16-difluoro-PGE1) on impaired neuron was tested. 1-methyl-4-phenyl-1,2,3,6-tetrahydropyridine hydrochloride (MPTP) was intraperitoneally administered to male C57BL/6 mice aged 10 weeks at 15 mg/kg/dose 4 times a day with an approximately 3-hour interval between doses for 2 days (experimental Day 1 and Day 2) to destroy the dopaminergic neuron in the brain. On the day following the final MPTP administration (on Day 3), some MPTP-treated mice were sacrificed to estimate the severity of degeneration and loss of nigro-striatal dopamine neurons by measuring the area of tyrosine hydroxylase (TH)-positive immunostained fibers in striatum. Other MPTP-treated mice were orally administered Compound A (11-deoxy-13,14-dihydro-15-keto-16,16-difluoro-PGE1) or the vehicle twice a day for 5 days (from Day 3 to Day 7) starting from the day following the final MPTP administration. The mice were decapitated on the day following the final administration of Compound A or the vehicle (on Day 8), and the whole brain was removed by incision of the skull, and placed into Bouin's fluid (pH 3.5-4.0). The brain section at the level of striatum (0.74 mm anterior to bregma) and substantia nigra (3.08 mm posterior to bregma) was cut out. After dehydration, the paraffin embedding of the slices was employed. Sections (about 6 μm thick) were prepared out of each of the slices at Bregma 0.74 mm and Bregma −3.08 mm, and the sections were used for TH immunostaining. The number of TH-positive immunostained cells in the right substantia nigra compacta (SNC) at Bregma −3.08 mm was counted by visual observation using an optical microscope OLYMPUS BH-2 (Olympus Corp.) with a ×20 microscope objective. For measuring the area of TH-positive immunostained fibers in striatum, an image obtained with an optical microscope OLYMPUS BH-2 (Olympus Corp.) with a ×40 microscope objective of TH-positive immunostained fibers in the right caudate putamen (CPu) at Bregma 0.74 mm was incorporated into a computer through OLYMPUS MCD-350, and the area of TH-positive fibers larger than 5 μm^2 was measured using an image analyzer Win ROOF (V5.6, Mitani Corp.), and expressed in term of an area of 1 mm^2.

[2] = system: full-thickness excisional wound in diabetic mice; experiment: Excisional wound healing in diabetic mice; format: in vivo, female diabetic (BKS.Cg-+Lepr^db/+Lepr^db/Jcl) mice; settings: ointment, Table 3
Procedure: The effect of Compound A (11-deoxy-13,14-dihydro-15-keto-16,16-difluoro-PGE1) on excisional wound healing was tested. A full-thickness excisional wound (1.5×1.5 cm) was made on the back of female diabetic (BKS.Cg-+Lepr^db/+Lepr^db/Jcl) mice at the age of 12 weeks. The excisional wound was covered with the perforated film dressing. Each test ointment was put into a 1-mL disposable polypropylene syringe to which a 21G hypodermic needle is attached, and 0.1 mL of the test ointment was applied to the wound by sticking the hypodermic needle into the film dressing, which covers the excisional wound. The application was performed once a day for 21 days starting from the day when the excisional wound was made; the day when the excisional wound was made was defined as Day 1. For histological examination, the skin including the excisional wound was obtained from animals treated with each test ointment for 6 days, and was served for immunostaining with antibody against Ki67, a marker protein of proliferating cells. The outline of each excisional wound was traced before application (Day 1) and Days 6, 8, 11, 13, 15, 18, 20, and 22 of administration. The traced excisional wound area was measured with an area-line meter. […]

[3] = Compound A 0.1 mg/kg orally twice a day for 5 days
[4] = Compound A 1 mg/kg orally twice a day for 5 days

## CCCCC(F)(F)C(=O)CCC1CCC(=O)C1CCCCCCC(=O)O (stereo not shown) [Compound A, 11-deoxy-13,14-dihydro-15-keto-16,16-difluoro-PGE1]
[1]; 0.1 mg/kg and 1 mg/kg groups
  Mean area of TH-positive fibers in the striatum compared to MPTP+Vehicle (control) group: significantly greater mean area of TH-positive fibers in the striatum
[1]; 0.1 and 1 mg/kg orally
  Number of TH-positive immunostained cells in the substantia nigra, trend in words: increased the number of TH-positive immunostained cells in the substantia nigra in a dose-dependent manner
[1]; [3]
  Area of TH-positive immunostained fibers in striatum, mean ± S.E.: 0.0465 ± 0.0102 mm2
  TH-positive immunostained cells in substantia nigra, mean ± S.E.: 35.2 ± 5.0 Number of cells
[1]; [4]
  Area of TH-positive immunostained fibers in striatum, mean ± S.E.: 0.0444 ± 0.0092 mm2
  TH-positive immunostained cells in substantia nigra, mean ± S.E.: 44.4 ± 5.0 Number of cells
[2]
  Skin wound healing, in words: accelerated skin wound healing
